{"source": "ChEMBL document CHEMBL3352393", "about": "“Gallic acid, one of the components in many plant tissues, is a potential inhibitor for insulin amyloid fibril formation” (Eur J Med Chem, 2014)", "key": {"[1]": {"species": "Homo sapiens", "assay": "Inhibition of insulin fibril formation (unknown origin) assessed as decrease in ThT fluorescence at 1:50 insulin to compound ratio at pH2 up to 12 hrs by ThT binding assay"}, "[2]": {"species": "Homo sapiens", "assay": "Inhibition of insulin fibril formation (unknown origin) assessed as turbidity at 1:50 insulin to compound ratio at pH2 up to 12 hrs by UV/vis spectrometry", "conditions": "concentration not given here"}, "[3]": {"species": "Homo sapiens", "assay": "Inhibition of insulin fibril formation (unknown origin) assessed as turbidity at pH2 up to 12 hrs by UV/vis spectrometry"}, "[4]": {"species": "Homo sapiens", "assay": "Inhibition of insulin fibril formation (unknown origin) assessed as secondary structural changes at 1:5 insulin to compound ratio at pH2 up to 12 hrs by Far-UV CD spectra"}, "[5]": {"species": "Homo sapiens", "assay": "Inhibition of insulin fibril formation (unknown origin) assessed as turbidity at 1:5 insulin to compound ratio at pH2 up to 12 hrs by UV/vis spectrometry", "conditions": "concentration not given here"}, "[6]": {"species": "Homo sapiens", "assay": "Inhibition of insulin fibril formation (unknown origin) assessed as decrease in ThT fluorescence at 1:5 insulin to compound ratio at pH2 up to 12 hrs by ThT binding assay"}, "[7]": {"species": "Homo sapiens", "assay": "Inhibition of insulin fibril formation (unknown origin) assessed as turbidity at 1:10 insulin to compound ratio at pH2 up to 12 hrs by UV/vis spectrometry"}, "[8]": {"species": "Homo sapiens", "assay": "Inhibition of insulin fibril formation (unknown origin) assessed as turbidity at 1:20 insulin to compound ratio at pH2 up to 12 hrs by atomic force microscopy"}, "[9]": {"species": "Homo sapiens", "assay": "Inhibition of insulin fibril formation (unknown origin) assessed as secondary structural changes at 1:5 insulin to compound ratio at pH2 up to 12 hrs by FT-IR technique"}}, "note": "Active and inactive are the calls of the source. The rule behind the calls is not given here."}
{"smiles": "O=C(O)c1cc(O)c(O)c(O)c1", "values": [{"measurement": "inhibition", "setting": "[1]", "result": "Active"}, {"measurement": "inhibition", "setting": "[2]", "result": 90, "unit": "%"}, {"measurement": "inhibition", "setting": "[3]", "result": "Dose-dependent effect"}, {"measurement": "inhibition", "setting": "[4]", "result": "Active"}, {"measurement": "inhibition", "setting": "[5]", "result": "> 50", "unit": "%"}, {"measurement": "inhibition", "setting": "[6]", "result": "Active"}, {"measurement": "inhibition", "setting": "[7]", "result": "Active"}, {"measurement": "inhibition", "setting": "[8]", "result": "Active"}, {"measurement": "inhibition", "setting": "[9]", "result": "Active"}]}
